# Assay results: ChEMBL document CHEMBL5226284, “Small Molecule Inhibitors Targeting Biosynthesis of Ceramide, the Central Hub of the Sphingolipid Network” (J Med Chem, 2021)
# pIC50, pKi: −log10 of the molar value.
# Columns and labels:
# [1] = Inhibition of rat brain aSMase using HMU-PC as substrate incubated for 3 hrs by fluorescence based analysis; format: tissue-based
# [2] = target: T1, Sphingomyelin phosphodiesterase 2 (Rattus norvegicus) (UniProt Q9ET64); test: Inhibition of rat brain microsomes nSMase at 200 uM measured after 90 mins relative to control; conditions: Microsome
# T1 sequence (whole entry): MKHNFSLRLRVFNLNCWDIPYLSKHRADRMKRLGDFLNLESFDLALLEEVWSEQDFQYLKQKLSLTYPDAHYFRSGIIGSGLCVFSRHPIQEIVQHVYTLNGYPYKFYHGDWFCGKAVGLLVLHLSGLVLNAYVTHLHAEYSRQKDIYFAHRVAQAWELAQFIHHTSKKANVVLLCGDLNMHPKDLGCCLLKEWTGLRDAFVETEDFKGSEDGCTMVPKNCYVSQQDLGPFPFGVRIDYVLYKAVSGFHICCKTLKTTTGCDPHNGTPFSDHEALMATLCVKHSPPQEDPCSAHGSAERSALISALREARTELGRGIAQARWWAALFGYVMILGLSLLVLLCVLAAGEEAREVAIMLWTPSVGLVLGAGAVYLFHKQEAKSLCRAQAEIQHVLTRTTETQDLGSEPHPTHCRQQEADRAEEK
# [3] = Inhibition of CerS human HCT-116 cells microsomal fraction assessed as reduction in C18 dihydroceramide synthesis by LC-MS/MS analysis; format: microsomes, Microsome
# [4] = Inhibition of CerS human HCT-116 cells microsomal fraction assessed as reduction in C24:1 dihydroceramide synthesis by LC-MS/MS analysis; format: microsomes, Microsome
# [5] = target: T2, Sphingomyelin phosphodiesterase 2 (Rattus norvegicus, UniProt Q9ET64); test: Inhibition of rat brain microsomes nSMase; set-up: species or system Microsome
# T2 sequence (Q9ET64 whole entry): T1 sequence (whole entry)
# [6] = target: T1, Sphingomyelin phosphodiesterase 2 (Rattus norvegicus); test: Inhibition of rat brain microsomes nSMase at 350 uM measured after 15 mins relative to control; conditions: Microsome
# [7] = target: T3, Sphingolipid delta(4)-desaturase DES1 (Rattus norvegicus, UniProt Q5XIF5); test: Inhibition of rat liver microsome DES1 incubated for 20 min in presence of NADH by liquid scintillation counter method; format: microsomes
# T3 sequence (Q5XIF5 whole entry): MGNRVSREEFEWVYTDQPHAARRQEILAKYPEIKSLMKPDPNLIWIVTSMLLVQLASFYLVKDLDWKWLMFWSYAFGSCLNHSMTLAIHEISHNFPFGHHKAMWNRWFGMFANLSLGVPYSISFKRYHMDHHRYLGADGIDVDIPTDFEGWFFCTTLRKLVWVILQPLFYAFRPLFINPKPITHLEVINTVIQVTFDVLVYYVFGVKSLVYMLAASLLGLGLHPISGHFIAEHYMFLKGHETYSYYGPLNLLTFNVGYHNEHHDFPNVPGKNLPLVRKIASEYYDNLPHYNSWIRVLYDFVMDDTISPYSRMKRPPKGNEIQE
# [8] = target: T1, Sphingomyelin phosphodiesterase 2 (Rattus norvegicus); test: Inhibition of rat brain microsomes nSMase at 100 uM relative to control; conditions: Microsome
# Sphingomyelinase C = target: T4, Sphingomyelinase C (Bacillus cereus, UniProt P11889); test: Inhibition of Bacillus cereus SMaseC
# T4 sequence (P11889 whole entry): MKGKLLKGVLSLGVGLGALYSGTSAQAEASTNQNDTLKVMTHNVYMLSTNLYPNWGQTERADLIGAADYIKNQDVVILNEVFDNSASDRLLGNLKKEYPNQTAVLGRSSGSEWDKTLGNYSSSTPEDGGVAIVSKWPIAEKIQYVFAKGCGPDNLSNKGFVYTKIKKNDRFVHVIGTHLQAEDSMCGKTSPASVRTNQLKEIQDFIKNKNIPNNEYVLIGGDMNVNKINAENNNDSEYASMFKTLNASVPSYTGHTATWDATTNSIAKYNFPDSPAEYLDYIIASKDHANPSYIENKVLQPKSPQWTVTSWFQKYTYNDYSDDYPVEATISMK
# [9] = Inhibition of CerS human HCT-116 cells microsomal fraction assessed as reduction in C16 dihydroceramide synthesis by LC-MS/MS analysis; format: microsomes, Microsome
# [10] = Inhibition of CerS human HCT-116 cells microsomal fraction assessed as reduction in C24 dihydroceramide synthesis by LC-MS/MS analysis; format: microsomes, Microsome
# [11] = Inhibition of rat brain aSMase using HMU-PC as substrate incubated for 3 hrs by fluorescence plate reader assay; format: tissue-based
# [12] = Inhibition of bovine brain microsomes nSMase assessed as inhibition constant; set-up: species or system Bos taurus, Microsome
# [13] = target: T5, Sphingomyelin phosphodiesterase 2 (Mus musculus, UniProt O70572); test: Inhibition of mouse nSMase
# T5 sequence (O70572 whole entry): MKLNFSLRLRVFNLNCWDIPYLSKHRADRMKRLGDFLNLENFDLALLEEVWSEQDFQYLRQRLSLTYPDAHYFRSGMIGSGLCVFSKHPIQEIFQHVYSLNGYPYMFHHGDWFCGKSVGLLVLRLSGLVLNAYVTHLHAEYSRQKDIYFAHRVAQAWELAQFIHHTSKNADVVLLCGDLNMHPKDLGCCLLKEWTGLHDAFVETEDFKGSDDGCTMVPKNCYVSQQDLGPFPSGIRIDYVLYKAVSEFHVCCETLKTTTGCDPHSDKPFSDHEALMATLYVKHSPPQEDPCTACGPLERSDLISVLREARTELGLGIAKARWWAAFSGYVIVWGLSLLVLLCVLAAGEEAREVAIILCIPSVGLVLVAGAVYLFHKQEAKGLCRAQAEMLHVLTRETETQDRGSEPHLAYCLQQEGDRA
# Bos taurus = species on record: Bos taurus; test: Inhibition of bovine brain microsomes nSMase measured after 60 mins relative to control; conditions: Microsome
# [14] = target: T1, Sphingomyelin phosphodiesterase 2 (Rattus norvegicus); test: Inhibition of rat brain microsomes nSMase at 100 uM incubated for 60 mins relative to control; conditions: Microsome
# [15] = target: T6, Ceramide synthase 1 (Homo sapiens) (UniProt P27544); test: Inhibition of CerS1 (unknown origin) at 10 uM relative to control
# T6 sequence (whole entry): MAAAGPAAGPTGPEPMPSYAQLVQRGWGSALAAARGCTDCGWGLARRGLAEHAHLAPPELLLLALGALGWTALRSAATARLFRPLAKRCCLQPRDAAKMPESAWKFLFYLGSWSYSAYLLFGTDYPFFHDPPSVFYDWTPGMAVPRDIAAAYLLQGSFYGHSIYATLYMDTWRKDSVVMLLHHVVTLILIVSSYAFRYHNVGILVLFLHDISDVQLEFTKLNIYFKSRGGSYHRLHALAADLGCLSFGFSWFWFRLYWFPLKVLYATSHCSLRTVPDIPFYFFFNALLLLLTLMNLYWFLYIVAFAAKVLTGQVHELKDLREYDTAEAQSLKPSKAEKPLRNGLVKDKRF
# [16] = target: T7, Sphingolipid delta(4)-desaturase DES1 (Homo sapiens, UniProt O15121); test: Inhibition of DES1 in human HGC-27 cell lysates; format: subcellular
# T7 sequence (O15121 whole entry): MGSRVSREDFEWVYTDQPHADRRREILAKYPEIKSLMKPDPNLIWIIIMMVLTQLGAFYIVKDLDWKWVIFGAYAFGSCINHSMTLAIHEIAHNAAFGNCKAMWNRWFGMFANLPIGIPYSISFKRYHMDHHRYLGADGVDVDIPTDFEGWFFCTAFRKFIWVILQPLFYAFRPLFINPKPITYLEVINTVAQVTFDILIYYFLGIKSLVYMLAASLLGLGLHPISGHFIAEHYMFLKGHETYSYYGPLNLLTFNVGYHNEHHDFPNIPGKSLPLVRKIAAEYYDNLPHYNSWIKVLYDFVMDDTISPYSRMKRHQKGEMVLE
# [17] = Inhibition of rat brain aSMase; format: tissue-based
# [18] = Inhibition of bovine brain microsomes nSMase; set-up: species or system Bos taurus, Microsome
# HEK293 = test: Competitive inhibition of CerS in HEK293 cells at 10 uM relative to control; format: cell-based; conditions: Homo sapiens
# [19] = target: Ceramide synthase 5 (Homo sapiens) (UniProt Q8N5B7); test: Inhibition of CerS5 (unknown origin) at 10 uM relative to control
# Chain of Ceramide synthase 5 (Homo sapiens) (Q8N5B7 whole entry): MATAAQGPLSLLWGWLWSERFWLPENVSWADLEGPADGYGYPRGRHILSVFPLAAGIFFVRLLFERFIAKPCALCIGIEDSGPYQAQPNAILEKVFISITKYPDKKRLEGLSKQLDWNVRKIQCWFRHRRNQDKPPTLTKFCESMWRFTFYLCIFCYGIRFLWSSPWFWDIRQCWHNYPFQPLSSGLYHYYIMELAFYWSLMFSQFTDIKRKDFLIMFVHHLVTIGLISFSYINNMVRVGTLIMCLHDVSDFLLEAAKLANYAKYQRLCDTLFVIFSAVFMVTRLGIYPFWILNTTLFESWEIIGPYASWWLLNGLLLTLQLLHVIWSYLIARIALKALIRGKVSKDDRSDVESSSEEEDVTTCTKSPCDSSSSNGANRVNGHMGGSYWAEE
# [20] = target: Ceramide synthase 6 (Homo sapiens) (UniProt Q6ZMG9); test: Inhibition of CerS6 (unknown origin) at 10 uM relative to control
# Chain of Ceramide synthase 6 (Homo sapiens) (Q6ZMG9 whole entry): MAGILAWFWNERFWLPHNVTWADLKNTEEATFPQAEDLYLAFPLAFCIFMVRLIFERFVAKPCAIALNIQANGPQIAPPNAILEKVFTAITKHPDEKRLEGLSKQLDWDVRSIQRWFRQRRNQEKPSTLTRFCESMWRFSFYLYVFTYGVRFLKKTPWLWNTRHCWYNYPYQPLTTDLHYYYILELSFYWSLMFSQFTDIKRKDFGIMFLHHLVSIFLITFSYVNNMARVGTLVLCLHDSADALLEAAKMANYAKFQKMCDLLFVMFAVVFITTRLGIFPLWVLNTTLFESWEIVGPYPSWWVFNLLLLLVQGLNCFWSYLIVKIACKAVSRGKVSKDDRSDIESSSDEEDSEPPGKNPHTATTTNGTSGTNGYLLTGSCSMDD
compound,measurement,setting,value
CCCCCCOS(=O)(=O)O[C@@H]1[C@H](O)[C@H](OP(=O)(O)O)[C@@H](O)[C@H](OP(=O)(O)O)[C@H]1O,pIC50,[1],4.37
CCCCCCCCCC(=O)N[C@H](C)C(=O)NC1=CC2(CO2)C(=O)C=C1 (some centres not stated),inhibition,[2],33%
CCCCCCCOc1ccc(CCC(CO)(CO)N(C)C)cc1,pIC50,[3],4.67
same,pIC50,[4],4.54
CC(C)(O)/C=C/c1cc(O)ccc1O,pIC50,[5],4.77
C/C=C/C=C/C(=O)N[C@@H](CO)[C@H]1CC(CCCCCC)C(=O)O1 (some centres not stated),inhibition,[6],90%
CCCCCCCCC/C=N/NC(=N)N,pIC50,[5],5.09
CCCCCCCCOS(=O)(=O)O[C@@H]1[C@H](O)[C@H](OP(=O)(O)O)[C@@H](O)[C@H](OP(=O)(O)O)[C@H]1O,pIC50,[1],5.40
CC1=C(/C=C/C(C)=C/C=C/C(C)=C/C(=O)Nc2ccc(O)cc2)C(C)(C)CCC1=O,pIC50,[7],5.77
COc1c(O)c(C)c(C/C=C(\C)CC/C=C(\C)CC/C=C(\C)CC/C=C(\C)CC/C=C(\C)CCC=C(C)C)c(O)c1OC,inhibition,[8],> 90%
CCCCCCC[C@@H](O)[C@H](CCCP(=O)([O-])OCC[N+](C)(C)C)NC(=O)CCCCC,pIC50,Sphingomyelinase C,4.11
COC(C)(C)/C=C/c1cc(O)ccc1O,pIC50,[5],4.80
N=C(N)N/N=C/c1cc2ccccc2[nH]1,pIC50,[5],5.30
CC(C)(O)/C=C/C1=CC(=O)C=CC1=O,pIC50,[5],5.38
CCCCCCCOc1ccc(CCC(CO)(CO)NC(=O)CCCc2ccccc2)cc1,pIC50,[9],4.30
same,pIC50,[3],4.57
same,pIC50,[10],4.09
same,pIC50,[4],4.21
CCCCCCCCCC(O)(P(=O)(O)O)P(=O)(O)O,pIC50,[11],7.10
CCCCCCCCCCCCNC(=S)N[C@H](CO)[C@H](O)c1ccc([N+](=O)[O-])cc1,pKi,[12],5.77
S=c1[nH]nc(Nc2ccc(Cl)cc2)n1-c1ccc(Cl)cc1,pIC50,[13],5.62
CCN(CC)c1ccc(C2NC(=S)NC(C)=C2C(=O)Nc2ccccc2OC)cc1 (configuration not stated),pIC50,[13],6.05
CCCCCCCCCCCCCCNC(=S)N[C@H](CO)[C@H](O)c1ccc([N+](=O)[O-])cc1,pKi,[12],5.60
same,inhibition,Bos taurus,90%
CCCCCCCCCC(N)(P(=O)(O)O)P(=O)(O)O,pIC50,[11],7.70
CCCCCCC[C@@H](O)[C@H](CC(F)(F)P(=O)([O-])OCC[N+](C)(C)C)NC(=O)CCCCC,pIC50,Sphingomyelinase C,4.24
CC(C)(O)C(O)Cc1cc(O)ccc1O (configuration not stated),pIC50,[5],4.47
CCCCCCCCCC(=O)N[C@H](CO)C(=O)NC1=CC2(CO2)C(=O)C=C1 (some centres not stated),inhibition,[2],80%
CCCCCCCCCCCC(=O)NC1=CC(=O)[C@H]2O[C@H]2C1=O,inhibition,[8],10%
same,inhibition,[14],88%
CCCCCCCCc1ccc(CCC(CO)(CO)NCC)cc1,pIC50,[9],4.59
same,pIC50,[3],4.29
same,pIC50,[10],4.22
C[C@@](N)(CO)CCc1ccc(OCc2ccccc2)cc1,inhibition,[15],76%
CCCCCCCCCCC/C=C/CC[C@@H](O)[C@H](CO)NC(=O)CCCCCCC,pIC50,[16],6.81
COc1ccc2oc(-c3cc(Br)cc4c3OCOC4)c(N)c(=O)c2c1,pIC50,[17],5.51
COS(=O)(=O)O[C@@H]1[C@H](O)[C@H](OP(=O)(O)O)[C@@H](O)[C@H](OP(=O)(O)O)[C@H]1O,pIC50,[1],< 4.00
S=c1[nH]nc(-c2cccs2)n1CC1CCCCC1,pIC50,[13],5.60
CCCCCCC[C@@H](O)[C@H](CCP(=O)([O-])OCC[N+](C)(C)C)NC(=O)CCCCC,pIC50,Sphingomyelinase C,3.92
C/C=C/C=C/C(=O)N[C@@H](CO)[C@H]1C=C(CCCCCC)C(=O)O1,inhibition,Bos taurus,90%
same,inhibition,[6],50%
CCOS(=O)(=O)O[C@@H]1[C@H](O)[C@H](OP(=O)(O)O)[C@@H](O)[C@H](OP(=O)(O)O)[C@H]1O,pIC50,[1],< 4.00
CCCCOc1ccc(CC[C@](C)(N)CO)cc1,inhibition,[15],16%
CCCCCCCCCCCCCCCC(=O)N[C@@H](CC(F)(F)P(=O)(O)O)[C@H](O)c1ccccc1,pIC50,[18],3.74
CCCCCCCCCCCC(O)(P(=O)(O)O)P(=O)(O)O,pIC50,[11],7.15
CCCCCCCCCC(=O)N[C@H](Cc1ccccc1)C(=O)NC1=CC2(CO2)C(=O)C=C1 (some centres not stated),inhibition,[2],23%
CC(C)C/C=C/C=C/C(=O)NC1=CC(=O)[C@H]2O[C@H]2C1=O,inhibition,[8],90%
same,inhibition,[14],98%
CCCCCCCCCCCCCCCCC(=O)NC(CO)(CO)CCc1ccc(OCCCCCCC)cc1,pIC50,[10],4.20
CCCCCCCOc1ccc(CC[C@](C)(N)CO)cc1,inhibition,HEK293,50%
same,inhibition,[15],> 90%
same,inhibition,[19],50%
same,inhibition,[20],50%
Cc1csc(-c2c(C(F)(F)F)oc3cc(O)c(C)cc3c2=O)n1,pIC50,[17],5.02
CCCCCCC[C@@H](O)[C@H](CNP(=O)([O-])OCC[N+](C)(C)C)NC(=O)CCCCC,pIC50,Sphingomyelinase C,4.28
CCOc1ccc(OCC)c(NC(=O)C2=C(C)NC(=S)NC2c2ccc(N(CC)CC)cc2)c1 (configuration not stated),pIC50,[13],6.07
CCCCCCCC(N)(P(=O)(O)O)P(=O)(O)O,pIC50,[11],7.40
